From ChEMBL document CHEMBL1142363, “Rhodanine derivatives as novel inhibitors of PDE4” (Bioorg Med Chem Lett, 2008) come the findings set out here.

Experiment [1] concerns the target cGMP-inhibited 3',5'-cyclic phosphodiesterase 3A (Homo sapiens, UniProt Q14432). Kind of experiment: Inhibition of PDE3A.
Experiment [2] addresses 3',5'-cyclic-AMP phosphodiesterase 4B (Homo sapiens, UniProt Q07343). Kind of experiment: Inhibition of PDE4B.

Active and inactive are the calls of the source. No cut-off for these calls is given here.

Usually IC50 stands for the point on the concentration scale where inhibition reaches its midpoint. High values mean a need for much substance, low ones inhibition by little substance.

Sequence of cGMP-inhibited 3',5'-cyclic phosphodiesterase 3A (Q14432 whole entry): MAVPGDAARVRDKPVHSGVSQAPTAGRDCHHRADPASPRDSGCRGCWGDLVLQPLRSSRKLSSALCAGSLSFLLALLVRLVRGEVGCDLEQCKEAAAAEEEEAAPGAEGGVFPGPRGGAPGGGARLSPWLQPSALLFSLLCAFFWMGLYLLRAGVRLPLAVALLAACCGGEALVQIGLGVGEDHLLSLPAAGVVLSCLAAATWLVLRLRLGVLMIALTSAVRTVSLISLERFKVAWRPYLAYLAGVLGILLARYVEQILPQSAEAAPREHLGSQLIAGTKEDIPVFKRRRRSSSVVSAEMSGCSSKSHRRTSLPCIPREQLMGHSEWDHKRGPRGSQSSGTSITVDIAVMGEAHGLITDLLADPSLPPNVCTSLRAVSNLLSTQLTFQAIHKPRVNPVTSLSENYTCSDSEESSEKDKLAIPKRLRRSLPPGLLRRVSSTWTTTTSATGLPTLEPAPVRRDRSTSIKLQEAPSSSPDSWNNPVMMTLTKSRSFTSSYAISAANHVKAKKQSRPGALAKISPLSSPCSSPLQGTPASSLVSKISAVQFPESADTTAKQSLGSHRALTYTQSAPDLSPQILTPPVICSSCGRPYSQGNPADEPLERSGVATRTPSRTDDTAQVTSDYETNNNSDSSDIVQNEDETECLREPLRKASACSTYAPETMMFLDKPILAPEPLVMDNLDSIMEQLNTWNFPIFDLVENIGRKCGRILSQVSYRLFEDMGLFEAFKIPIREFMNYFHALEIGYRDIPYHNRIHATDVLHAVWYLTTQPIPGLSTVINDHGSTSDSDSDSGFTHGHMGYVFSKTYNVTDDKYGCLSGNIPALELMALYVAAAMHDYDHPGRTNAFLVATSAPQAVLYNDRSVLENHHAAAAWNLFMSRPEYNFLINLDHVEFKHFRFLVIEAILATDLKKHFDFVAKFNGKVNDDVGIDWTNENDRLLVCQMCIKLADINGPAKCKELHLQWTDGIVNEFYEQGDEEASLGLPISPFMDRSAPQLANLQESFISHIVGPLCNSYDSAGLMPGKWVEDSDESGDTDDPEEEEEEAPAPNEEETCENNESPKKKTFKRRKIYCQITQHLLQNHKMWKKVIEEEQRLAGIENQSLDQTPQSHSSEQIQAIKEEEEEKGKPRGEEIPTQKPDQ
Sequence of 3',5'-cyclic-AMP phosphodiesterase 4B (Q07343 whole entry): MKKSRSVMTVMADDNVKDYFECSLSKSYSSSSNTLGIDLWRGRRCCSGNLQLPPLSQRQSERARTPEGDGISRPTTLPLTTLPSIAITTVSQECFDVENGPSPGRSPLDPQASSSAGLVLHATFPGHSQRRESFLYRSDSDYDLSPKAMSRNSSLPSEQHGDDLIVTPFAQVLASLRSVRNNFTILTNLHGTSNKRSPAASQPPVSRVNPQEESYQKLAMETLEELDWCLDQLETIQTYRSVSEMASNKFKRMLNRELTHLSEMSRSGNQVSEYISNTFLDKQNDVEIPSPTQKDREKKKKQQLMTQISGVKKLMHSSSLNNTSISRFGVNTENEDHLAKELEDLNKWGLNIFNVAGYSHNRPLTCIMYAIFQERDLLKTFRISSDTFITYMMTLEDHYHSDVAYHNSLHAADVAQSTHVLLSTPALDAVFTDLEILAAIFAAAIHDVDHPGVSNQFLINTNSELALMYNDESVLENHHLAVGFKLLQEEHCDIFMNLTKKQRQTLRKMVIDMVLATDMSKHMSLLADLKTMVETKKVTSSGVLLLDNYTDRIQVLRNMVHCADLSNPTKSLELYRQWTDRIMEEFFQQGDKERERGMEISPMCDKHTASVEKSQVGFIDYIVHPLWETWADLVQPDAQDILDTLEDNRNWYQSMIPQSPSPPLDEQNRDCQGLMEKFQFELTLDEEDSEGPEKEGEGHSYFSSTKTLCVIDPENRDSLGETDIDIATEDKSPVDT

As to `CCOc1ccc(/C=C2\SC(=S)NC2=O)cc1OC1CCCC1`, the IC50 in experiment [1] was found to be 25 µM; in experiment [2], 1.85 µM.
On to `CCN1C(=O)/C(=C/c2ccc(OC)c(OC)c2)SC1=S`, for which, in experiment [2], the result was inactive.
In experiment [2], `COc1ccc(/C=C2\SC(=S)NC2=O)cc1OC` (stereo in doubt; 10a) [listing 1 of 2 here] showed a concentration for half-maximal inhibition (IC50) of 28.3 µM.
For `COc1ccc(/C=C2\SC(=S)N(CC(=O)O)C2=O)cc1OC1CCCC1`, the outcome in experiment [1] was inactive. In addition, the IC50 in experiment [2] worked out at 3.07 µM.
For `COc1ccc(/C=C2\SC(=N)NC2=O)cc1OC1CCCC1` [PSEUDOTHIOHYDANTOIN], in that order: “inactive” and 0.31 µM.
`COc1cc(/C=C2\SC(=S)NC2=O)ccc1O`: the outcome in experiment [2] was inactive.
On to `CCN1C(=O)/C(=C/c2ccc(OC)c(O)c2)SC1=S`, for which the result in experiment [1] was inactive. In experiment [2], this compound had an IC50 of 11.2 µM.
In the case of `COc1ccc(/C=C2\SC(=S)NC2=O)cc1O`, the result in experiment [2] was inactive.
On the same count and under the same terms, the entry for `C=CCN1C(=O)/C(=C/c2ccc(OC)c(OC)c2)SC1=S` is “inactive”.
Consider `C=CCOc1cc(/C=C2\SC(=S)NC2=O)ccc1OC`, for which, in experiment [1], the outcome was inactive. The compound further had a 50% inhibitory concentration (IC50) in experiment [2] of 3.08 µM.
For `COc1ccc(/C=C2\SC(=O)NC2=O)cc1OC`, in that order: “inactive” and 14.1 µM.
Regarding `COc1ccc(/C=C2\SC(=S)N(C)C2=O)cc1OC`, in experiment [2], the result was inactive.
In the case of `C=CCN1C(=O)/C(=C/c2ccc(OC)c(OC3CCCC3)c2)SC1=S`, the result in experiment [1] was inactive. Further, in experiment [2], the half-inhibitory concentration (IC50) was 4.13 µM.
Turning to `COc1ccc(/C=C2\SC(=S)NC2=O)cc1OC` (stereo in doubt; 10a) [listing 2 of 2 here], in experiment [1], the outcome was inactive.
`COc1ccc(/C=C2\SC(=S)NC2=O)cc1OC` (stereo in doubt; 2a): the figures for the IC50 in experiment [1] and in experiment [2] were 10.5 µM and 17.9 µM, respectively.
Regarding `COc1ccc(/C=C2\SC(=O)N(Cc3ccccc3)C2=O)cc1OC1CCCC1`, the outcome in experiment [2] was inactive.
As for `CCOc1ccc(/C=C2\SC(=S)NC2=O)cc1OCC`, the IC50 is 80 µM in experiment [1] and 6.51 µM in experiment [2].
Consider `COc1ccc(/C=C2\SC(=S)N(C)C2=O)cc1OC1CCCC1`, for which, in experiment [1], the outcome was inactive. The IC50 in experiment [2] came to 2.87 µM.
`O=C1NC(=S)S/C1=C\c1ccc2c(c1)OCO2`: the result in experiment [2] was inactive.
`CCN1C(=O)/C(=C/c2ccc(O)c(OC)c2)SC1=S`: in experiment [1], the result was inactive. Further, in experiment [2], the half-inhibitory concentration (IC50) came out at 0.74 µM.
As for `COc1cc(/C=C2\SC(=S)NC2=O)ccc1OC1CCCC1`, the values for the IC50 in experiment [1] and in experiment [2] were 28.5 µM and 30.4 µM, respectively.
Take `COc1ccc(/C=C2\SC(=S)N(CC(=O)O)C2=O)cc1OC`: the result in experiment [2] was inactive.
In the case of `COc1ccc(/C=C2\SC(=S)NC2=O)cc1OC1CCCC1`, the half-inhibitory concentration (IC50) worked out at 10.8 µM in experiment [1] and 0.89 µM in experiment [2].
For `CCOc1ccc(/C=C2\SC(=S)NC2=O)cc1OC`, in that order: 9.46 µM and 6.91 µM.
`O=C1NC(=S)S/C1=C\c1ccc(O)c(O)c1`: the result in experiment [2] was inactive.
Consider `COc1ccc(/C=C2\SC(=S)NC2=O)cc1OC1CCCCC1`, for which the result in experiment [1] was inactive. This compound gave an IC50 in experiment [2] of 1.94 µM.
Take `COc1ccc(/C=C2\SC(=S)NC2=O)cc1`: the result in experiment [2] was inactive.
For `COc1ccc(/C=C2\SC(=O)NC2=O)cc1OC1CCCC1`, in experiment [1], the outcome was inactive. In experiment [2], this compound displayed an IC50 of 1.09 µM.
With `COc1cccc(/C=C2\SC(=S)NC2=O)c1`, in experiment [2], the outcome was inactive.
With `COc1ccc(/C=C2\SC(=S)NC2=O)cc1OCc1ccccc1`, the outcome in experiment [2] was inactive.
Turning to `COc1ccc(C2CNC(=O)C2)cc1OC1CCCC1` (stereo not drawn), the result in experiment [1] was inactive.
`COc1cc(/C=C2\SC(=S)NC2=O)cc(OC)c1OC` returned an IC50 in experiment [2] of 64.8 µM.
For `COc1ccc(/C=C2\CCNC2=O)cc1OC1CCCC1`, the outcome in experiment [1] was inactive. In experiment [2], this compound yielded a concentration for half-maximal inhibition (IC50) of 4.01 µM.
Turning to `COc1cccc(/C=C2\SC(=S)NC2=O)c1OC`, the IC50 in experiment [2] came to 54.7 µM.
On to `CCOc1cc(/C=C2\SC(=S)NC2=O)ccc1OC`, for which the figures for the IC50 in experiment [1] and in experiment [2] were 39.8 µM and 5.3 µM, respectively.
